Measured values taken from publication PMC6013238, “Development of novel NEMO-binding domain mimetics for inhibiting IKK/NF-κB activation” (PLoS Biology, 2018).
Several values for one entry are separate records, joined by “and”; a condition that tells them apart may be missing. Equal values may be shown once. Read-outs that look alike come from different tables or passages of the source.

Assays:
NF-κB target genes [1] = test: LPS-induced acute inflammation, qRT-PCR of NF-κB target genes in lung and liver; type: in vivo, mouse
Method: (§1) Fig 6 Newly identified NBD mimetics suppress LPS-induced acute inflammation in vivo. (A) The bioavailability property of SR12460, SR12343, SR12454, and SR11481. Concentrations of NBD mimetics were determined in plasma, brain, muscle, spleen, and liver 2 h post a single i.p. injection of 10 mg/kg of drugs; n = 3 per group. (B) Shown is the model to induce LPS-mediated acute inflammation and the treatment regimen with NBD mimetics. Mouse image via http://www.clker.com/clipart-mice-blank.html (copyright-free). (C) NBD mimetics suppressed LPS-induced acute inflammation in liver and lung by down-regulating NF-κB target gene expression. Vehicle, SR12343, SR12460, and 8K-NBD peptide were dosed at 10 mg/kg 30 min prior to the LPS treatment. Acute inflammation was induced by i.p. injection of 10 mg/kg LPS. Lung and liver were collected 2–4 h post injection, and mRNA was extracted for qRT-PCR analysis. (D, E) Western blot analysis was performed to probe for the expression of p-IκBα and COX-2 at protein level in liver and lung tissues. (F) Serum levels of IL-6 were determine by ELISA. n = 3–8 each group. *P < 0.05, **P < 0.01. Underlying data can be found in S1 Data. COX-2, cyclooxygenase 2; IL-6, interleukin 6; i.p., intraperitoneal; LPS, lipopolysaccharide; NBD, NEMO-binding domain; n.d., nondetectable; NEMO, NF-κB essential modulator; NF-κB, nuclear factor κB; qRT-PCR, quantitative real-time polymerase chain reaction. TEXT PRINTED IN THE PICTURE: (A) SR11481: Concentration (ng/ml): n.d. (plasma)
To determine their NF-κB inhibitory effects in vivo, SR12343 and SR12460 were tested in an acute model of LPS-induced systemic endotoxemia. C57BL/6J mice were pretreated with vehicle control, 8K-NBD peptide, or NBD mimetics at 10 mg/kg for 30 min, followed by LPS induction at 10 mg/kg (Fig 6B). Lung and liver were harvested 2–4 h post treatment for qRT-PCR analysis of NF-κB target genes. […] Despite lower plasma and tissue concentrations of SR12343 compared to SR12460, its inhibition of NF-κB/IKK in liver and lung were greater than that of SR12460 (Fig 6C). Similarly, acute treatment with SR12343 also affected the LPS-induced expression of NF-κB target genes at protein level. The extent of phosphorylation of IκBα and the levels of COX-2 were reduced in lung and liver tissues treated with SR12343 (Fig 6D and 6E). […] However, no significant differences in lung histopathology were observed. Finally, there was a slight reduction in the number of white blood cells and neutrophils in the SR12343-treated group (Table 2).
LPS (strain O111:B4) was prepared in PBS at a sublethal dose of 10 mg/kg. Female WT mice 8 to 10 wk old (20–30 g) were dosed by i.p. injection with vehicle, NBD peptide (10 mg/kg), or small molecules (10 mg/kg) for 30 min, followed by i.p. injection of saline (1 mL/kg) or LPS (10 mg/kg). Mice were euthanized 2 to 4 h post treatment, and lung and liver tissues were collected for further analysis.
Snap-frozen tissues were preserved in RNAlater RNA stabilization solution (ThermoFisher). Total RNA was extracted from cells or tissues by using TRIZOL reagent (Life Technologies), and 1,500 ng of mRNA was subjected to synthesis of cDNA using SuperScript VILO cDNA synthesis kit. qRT-PCR was performed in a StepOnePlus Real-Time PCR system using Platinum SYBR Green qPCR SuperMix-UDG (ThermoFisher). Target gene expression was calculated using the comparative CT method (ΔΔCT) by normalizing to an internal control gene Actb (β-actin). […]

NF-κB target genes [2] = test: qRT-PCR of NF-κB target genes in LPS-stimulated Raw 264.7 cells; type: cell-based, mouse; conditions: LPS 1 μg/ml 2 h; for Effect on transcription of NF-κB target genes (COX-2, IL-6, IL-1β, TNF-α, IκBα, iNOS): 50 μM
[3] = Plasma and tissue concentrations 2 h after a single i.p. injection; type: in vivo, mouse; conditions: for concentration at 2 h: male, C57BL/6J, mouse, ip, 10 mg/kg
Method: To determine the stability of the NBD mimetics in vivo, their levels were measured in the plasma of mice 2 h post i.p. injection with 10 mg/kg of each compound. The concentration of SR12460 was very high in plasma (>6.5 μg/mL; 20 μM), while levels in brain, muscle, spleen, and liver were lower. SR12343 and SR12454 had lower plasma concentrations, with SR12343 showing a higher level in liver and SR12454 showing higher concentrations in muscle and spleen. The level of SR11481 was undetectable in plasma and tissues (Fig 6A).
as §1
The pharmacokinetic profile of the NBD mimetics was determined in male C57BL/6J mice (n = 3). The drugs were formulated in 10:10:80 of DMSO:Tween 80:water and were dosed by i.p. injection at a final dose of 10 mg/kg. Blood, brain, muscle, spleen, and liver were collected 2 h post treatment and were analyzed by mass spectrometry by following a protocol previously described.

[4] = Fig 6C, 10 mg/kg 30 min before LPS 10 mg/kg i.p., 2-4 h, single mice
[5] = Fig 4C, IKKi VII 2 μM, 8K-NBD 200 μM, SR compounds 50 μM, relative to no LPS
[6] = 2 h post single i.p. 10 mg/kg, single mice
[7] = plasma, 2 h post single i.p. 10 mg/kg, single mice, read-out: Concentration in plasma
[8] = spleen, 2 h post single i.p. 10 mg/kg, single mice, read-out: Concentration in spleen

Row | Compound | ikBa mRNA in lung (qRT-PCR, relative to vehicle) (NF-κB target genes [1]; [4]) | COX2 mRNA expression (qRT-PCR) (NF-κB target genes [2]; [5]) | IL-1b mRNA expression (qRT-PCR) (NF-κB target genes [2]; [5]) | iNOS mRNA expression (qRT-PCR) (NF-κB target genes [2]; [5]) | Effect on transcription of NF-κB target genes (COX-2, IL-6, IL-1β, TNF-α, IκBα, iNOS) (NF-κB target genes [2]) | Concentration in plasma [3, 6] | Concentration in spleen [3, 6] | concentration at 2 h [3, 7] | concentration at 2 h [3, 8] | also measured
1 | O=C(CNCCc1cc(F)cc(F)c1)Nc1ccc(Cl)cn1 [SR12460] | 0.8864 and 1.179 and 0.7265 and 0.7577 and 0.6496 and 0.9355 and 0.7819 | 38.9806 and 69.3201 and 44.3249 | 108.936 | 2.289 and 2.778 | significantly inhibit the transcription of all NF-κB target genes tested | 5470 ng/mL and 7970 ng/mL | 905 ng/mL and 1250 ng/mL | 6520 ng/mL | 930 ng/mL | iNOS mRNA in lung (qRT-PCR, relative to vehicle) (NF-κB target genes [1]; [4]): 0.4025 and 0.5396 and 0.4809 and 0.7846 and 0.6512 and 0.5854 and 0.4587 and 0.5387; Concentration in liver [3, 6]: 265 ng/mL and 390 ng/mL; Concentration in muscle [3, 6]: 602 ng/mL and 852 ng/mL; concentration at 2 h ([3]; liver, 2 h post single i.p. 10 mg/kg, single mice, read-out: Concentration in liver): 442 ng/mL; concentration at 2 h ([3]; muscle, 2 h post single i.p. 10 mg/kg, single mice, read-out: Concentration in muscle): 846 ng/mL; concentration at 2 h ([3]; plasma, 2 h post i.p. 10 mg/kg, read-out: Concentration in plasma): > 6500 ng/mL and 20 µM
2 | O=C(CNc1ccc(Cl)cn1)NCCc1cccc(Br)c1 [SR12343] | 0.8689 and 0.6292 and 0.6865 and 0.9681 and 0.6797 and 1.015 and 0.7177 | 201.141 and 209.385 | 270.981 and 273.172 | 6.825 and 6.083 | significant inhibition on COX-2, IL-6, and iNOS expression | 14.7 ng/mL and 8.4 ng/mL | 26.6 ng/mL and 25.1 ng/mL | 14.3 ng/mL | 24.7 ng/mL | NF-κB transcriptional activity in lung (iNOS, IκBα, COX-2, IL-6) (NF-κB target genes [1]; 10 mg/kg, LPS 10 mg/kg): significantly inhibit; ikBa mRNA in liver (qRT-PCR, relative to vehicle) (NF-κB target genes [1]; [4]): 1.072 and 1.242 and 1.317 and 1.467 and 0.7748 and 0.7346 and 1.371; IL6 mRNA expression (qRT-PCR) (NF-κB target genes [2]; [5]): 204.868 and 211.79; TNFa mRNA expression (qRT-PCR) (NF-κB target genes [2]; [5]): 84.4509 and 85.4634; ikBa mRNA expression (qRT-PCR) (NF-κB target genes [2]; [5]): 15.399 and 14.5661; Concentration in brain [3, 6]: 45.7 ng/mL and 29.2 ng/mL; concentration at 2 h ([3]; brain, 2 h post single i.p. 10 mg/kg, single mice, read-out: Concentration in brain): 31.8 ng/mL
